Reference: ChEMBL document CHEMBL3886234, “Isoform selective phospholipase D inhibitors” (2015)

Biological target: T1, Phospholipase D1 (Homo sapiens, UniProt Q13393)
T1 sequence (Q13393 whole entry): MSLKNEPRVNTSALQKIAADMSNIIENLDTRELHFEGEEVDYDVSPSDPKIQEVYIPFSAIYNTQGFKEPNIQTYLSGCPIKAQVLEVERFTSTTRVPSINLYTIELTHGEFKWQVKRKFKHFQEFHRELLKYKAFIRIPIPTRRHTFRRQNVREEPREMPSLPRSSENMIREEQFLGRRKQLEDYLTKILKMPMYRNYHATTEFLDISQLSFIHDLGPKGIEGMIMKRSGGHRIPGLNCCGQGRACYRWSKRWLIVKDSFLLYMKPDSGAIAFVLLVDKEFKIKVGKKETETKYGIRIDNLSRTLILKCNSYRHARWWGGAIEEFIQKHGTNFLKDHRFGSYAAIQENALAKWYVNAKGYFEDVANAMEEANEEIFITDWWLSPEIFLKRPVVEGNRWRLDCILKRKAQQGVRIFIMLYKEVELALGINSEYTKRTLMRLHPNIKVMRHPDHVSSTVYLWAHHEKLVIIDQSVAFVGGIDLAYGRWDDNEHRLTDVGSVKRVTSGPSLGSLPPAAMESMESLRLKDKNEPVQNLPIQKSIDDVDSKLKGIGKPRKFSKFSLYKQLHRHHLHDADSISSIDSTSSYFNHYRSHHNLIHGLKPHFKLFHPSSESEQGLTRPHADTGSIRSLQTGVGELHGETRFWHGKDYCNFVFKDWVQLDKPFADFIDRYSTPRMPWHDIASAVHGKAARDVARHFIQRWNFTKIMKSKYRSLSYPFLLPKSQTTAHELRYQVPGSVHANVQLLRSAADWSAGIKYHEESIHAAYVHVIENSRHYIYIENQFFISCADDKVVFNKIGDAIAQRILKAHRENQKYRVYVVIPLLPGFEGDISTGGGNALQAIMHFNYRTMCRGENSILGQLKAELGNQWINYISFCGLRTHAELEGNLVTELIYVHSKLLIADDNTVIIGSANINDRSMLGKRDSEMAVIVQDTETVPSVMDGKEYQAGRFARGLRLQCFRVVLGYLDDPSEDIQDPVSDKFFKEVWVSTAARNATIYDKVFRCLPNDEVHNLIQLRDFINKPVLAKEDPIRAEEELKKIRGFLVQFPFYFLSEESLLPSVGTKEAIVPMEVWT
Assay: Inhibition Assay: In one aspect, the compound inhibits PLD activity; that is, a compound can inhibit PLD1 activity and/or PLD2 activity. In a further aspect, the compound inhibits PLD1 response in Calu-1 cells. In a further aspect, the compound inhibits PLD2 response in HEK293gfpPLD2 cells. In a further aspect, the compound inhibits in vitro PLD1 response. In a further aspect, the compound …
Assay type: cell-based

**Q.** Which IC50 does the source give for C[C@@H](CN1CCC2(CC1)C(=O)NC[C@@H]2c1ccc(F)cc1)NC(=O)c1ccc(F)cc1 here?
**A.** Its IC50 is 1.2 µM.
